Results taken from US11891464B2, “Alkane-soluble non-metallocene precatalysts” (Dow Global Technologies LLC, priority 2018, dated 2024).

Key:
[1] = Solubility Test Method (solubility in hexanes); type: physicochemical; details: hexanes containing at least 60 wt % n-hexane; room temperature and ambient pressure
Procedure: Solubility Test Method: to a 20-mL vial is added, at room temperature and ambient pressure, a known mass of test precatalyst (e.g., compound (1)) and a known volume of hexanes containing at least 60 weight percent n-hexane. A PTFE-coated magnetic stir bar is added and the mixture is allowed to stir for 1 hour before the vial is removed from the stir plate, and the mixture is allowed to sit overnight. The next day the suspension is filtered through a 0.4 μm PTFE syringe filter into a tared vial, giving a known mass of supernatant, and the hexanes are removed under reduced pressure, leaving a measurable mass of the compound of formula (1) from which wt. % solubility is calculated.

[2] = Light-off Test Method (time to maximum temperature in polymerization of 1-octene); details: for Light-off Performance (Time to Maximum (minutes)): 8 micromoles precatalyst, 0.16 g spray dried methylaluminoxane, 11 mL 1-octene
Procedure: Light-off Test Method: Under an atmosphere of nitrogen in a glovebox, charge a 40 mL glass vial with a PTFE-coated, magnetic stir bar and 0.16 g of spray dried methylaluminoxane powder of Preparation 1A. To the charged vial add 11 mL of 1-octene, and then insert the vial into an insulated sleeve mounted on a magnetic stir plate turning at approximately 300 rotations per minute (rpm). To the insulated vial add 8 micromoles (μmol) of precatalyst (e.g., compound (1) or HN5Zr dibenzyl). Cap the vial with a rubber septum. Insert a thermocouple probe through the rubber septum into the vial such that the tip of the thermocouple probe is below the liquid level. Record the temperature of the contents of the vial at 5 second intervals, continuing until after the maximum temperature is reached. Download the temperature and time data to a spreadsheet, and plot thermo-kinetic profiles for analysis.

Compound | Solubility in Hexanes (wt %) [1] | Light-off Performance (Time to Maximum (minutes)) [2] | time to maximum temperature, times better than HN5Zr dichloride (CE1) ([2]; relative to HN5Zr dichloride (CE1))
Cc1c(C)c(C)c([N-]CCNCC[N-]c2c(C)c(C)c(C)c(C)c2C)c(C)c1C.[CH2-]c1ccccc1.[CH2-]c1ccccc1.[Zr+4] [HN5Zr dibenzyl (CE2)] | 0.03 wt % | 78.6 min | –
Cc1c(C)c(C)c([N-]CCNCC[N-]c2c(C)c(C)c(C)c(C)c2C)c(C)c1C.[Cl-].[Cl-].[Zr+4] [HN5Zr dichloride (CE1)] | – | 5.2 min | –
bis(2-(pentamethylphenylamido)ethyl)-amine zirconium(IV) bis-trimethylsilylmethyl [Compound (1A)] | – | 1.3 min | 4 times
